Entries after “also recorded” stand apart in the source; their conditions may differ.
System: MDA-pc3 and MDA-B6 TNBC tumors
Test: Tumor xenograft study, tumor growth
Format: in vivo, NOD-SCID mice
Settings: 5 mg/kg orally twice a day, MDA-pc3 vs MDA-B6 xenografts (FIG. 7A)
Description: FIG. 7. Analysis of the SL interaction between EPHB6 and SRC in TNBC cells and murine xenografts. A. MDA-pc3 and MDA-B6 cells were injected into the mammary fat pad region of 4-6 weeks old NOD-SCID mice (1×10^6 cells per mouse). Mice with detectable tumors were treated twice per day with 5 mg/kg KX2-391 in DMSO/water solvent or solvent alone by oral feeding (at least 6 animals per each experimental condition). Tumor size was measured every 3 days and tumor volume was calculated with the equation: A/2*B^2, where A was long and B was short diameter of the tumor. The reduction in tumor growth in KX2-391-treated mice is presented as a percentage relative to matching solvent controls. The graph summarizes two independent experiments. […] Four representative fields (at 3, 6, 9, and 12 o'clock) per each stained tumor section (one for each extracted tumor) were imaged at 100× magnification and the blood vessel density per each field was analyzed with the Image-Pro Premier software. […]
Breeder pairs of NOD SCID gamma mice were purchased from The Jackson Laboratory and a colony was established at the Laboratory Animal Services Unit, University of Saskatchewan. […] Digital caliper measurements were taken every 3 days and tumor volume was calculated by the formula A/2*B^2 (where A and B were the long and short diameters of the tumor respectively). […]

O=C(Cc1ccc(-c2ccc(OCCN3CCOCC3)cc2)cn1)NCc1ccccc1 [KX2-391]
suppression of tumor growth, EPHB6-deficient vs EPHB6-expressing tumors: more efficiently suppresses growth of EPHB6-deficient TNBC tumors; also recorded: significantly more effective in suppressing EPHB6-deficient TNBC tumors

From US20190203253A1, “METHODS OF IDENTIFYING AND TREATING CANCER PATIENTS WITH AN EPHB6 DEFICIENCY” (University of Saskatchewan, priority 2016, published 2019)
